Assay [1] deals with IDH1-R132C recombinant protein (Homo sapiens (Human), UniProt O75874, R132C). The experiment in a line: IDH1-R132C enzymatic assay (inhibition of NADPH consumption, diaphorase/resazurin readout). The assay is classed as biochemical. The note with it: read-out: Enzyme IDH1 R132C IC50 (Range). Here is the method: (§1) Assays were performed in a 384-well black plate. An aliquot of 250 nL of compound was incubated with 10 μL of 30 nM IDH1-R132H or 10 nM IDH1-R132C recombinant protein in assay buffer (50 mM Tris pH=7.5, 150 mM NaCl, 5 mM MgCl2, 0.1% (w/v) Bovine Serum Albumin, and 0.01% Triton X-100) in each well at 25° C. for 15 minutes. After the plate was centrifuged briefly, an aliquot of 10 μL of 2 mM α-ketoglutarate and 20 μM NADPH solution prepared in assay buffer was then added to each well and the reaction was maintained at 25° C. for 45 minutes. An aliquot of 10 μL of diaphorase solution (0.15 U/mL diaphorase and 30 µM Resazurin in assay buffer) was added to each well. The plate was maintained at 25° C. for 15 minutes and then read on a plate reader with excitation and emission wavelengths at 535 nm and 590 nm, respectively. The IC50 of a given compound was calculated by fitting the dose response curve of inhibition of NADPH consumption at a given concentration with the four parameter logistic equation.
(Alamar Blue is a resazurin reagent that responds to reducing activity.)

Assay [2] addresses IDH1-R132H recombinant protein (Homo sapiens (Human), UniProt O75874, R132H). The assay is described as follows: IDH1-R132H enzymatic assay (inhibition of NADPH consumption, diaphorase/resazurin readout). The note with it: read-out: Enzyme IDH1 R132H IC50 (Range). It counts as biochemical. Here is the method:
as §1

As usually defined, the IC50 is the point on the concentration scale where inhibition reaches its midpoint.

Chain of IDH1-R132C recombinant protein (O75874 whole entry R132C): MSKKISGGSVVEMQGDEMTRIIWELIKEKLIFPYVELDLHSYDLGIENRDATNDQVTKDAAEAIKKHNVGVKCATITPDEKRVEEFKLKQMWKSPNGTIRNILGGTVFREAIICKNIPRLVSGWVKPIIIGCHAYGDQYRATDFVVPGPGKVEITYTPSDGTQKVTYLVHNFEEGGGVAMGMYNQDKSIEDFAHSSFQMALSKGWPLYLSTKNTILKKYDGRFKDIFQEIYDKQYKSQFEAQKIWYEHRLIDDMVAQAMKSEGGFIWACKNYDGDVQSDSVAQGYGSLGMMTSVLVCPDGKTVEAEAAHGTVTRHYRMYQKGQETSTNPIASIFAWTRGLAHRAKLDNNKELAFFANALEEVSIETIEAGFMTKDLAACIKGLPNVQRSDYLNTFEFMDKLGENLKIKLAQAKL
Chain of IDH1-R132H recombinant protein (O75874 whole entry R132H): as the sequence (O75874 whole entry R132C) above, with C132H counted along it

Consider `C[C@H](Nc1nccc(N(CC2CC2)S(C)(=O)=O)n1)c1cc2cc(Cl)ccc2[nH]c1=O` [Compound I-2, (S)—N-(2-((1-(6-Chloro-2-oxo-1,2-dihydroquinolin-3-yl)ethyl)amino)pyrimidin-4-yl)-N-(cyclopropylmethyl)methanesulfonamide], for which the IC50 in assay [1] and in assay [2] was under 100 nM throughout.

Regarding `C[C@H](Nc1nccc(N2CCCC2=O)n1)c1cc2cc(Cl)ccc2[nH]c1=O` [Compound I-138], the IC50 was 100 to 1000 nM in assay [1] and under 100 nM in assay [2].

As for `CC(C)N(c1ccnc(N[C@@H](C)c2cc3cc(Cl)ccc3[nH]c2=O)n1)S(=O)(=O)c1cccnc1` [Compound I-4, (S)—N-(2-((1-(6-Chloro-2-oxo-1,2-dihydroquinolin-3-yl)ethyl)amino)pyrimidin-4-yl)-N-isopropylpyridine-3-sulfonamide], the IC50 in assay [1] and in assay [2] was under 100 nM in each case.

Turning to `C[C@H](Nc1nccc(N(C2CC2)S(C)(=O)=O)n1)c1cc2cc(Cl)ccc2[nH]c1=O` [Compound I-14], the IC50 in assay [1] is 1000 to 10000 nM; in assay [2] it was 100 to 1000 nM.

In the case of `CC(C)CN(C(=O)C1CC1)c1ccnc(N[C@@H](C)c2cc3cc(Cl)ccc3[nH]c2=O)n1` [Compound I-35], the IC50 in assay [1] lay within 1000 to 10000 nM; in assay [2] it was 100 to 1000 nM.

As to `C[C@H](Nc1nccc(NC(C)(C)C)n1)c1cc2cc(Cl)ccc2[nH]c1=O` [Compound I-7], the figures for the IC50 in assay [1] and in assay [2] were 1000 to 10000 nM and 100 to 1000 nM, respectively.

Turning to `CC(C)CS(=O)(=O)N(C)c1ccnc(N[C@@H](C)c2cc3cc(Cl)ccc3[nH]c2=O)n1` [Compound I-15], the IC50 in assay [1] and in assay [2] was 100 to 1000 nM throughout.

For `CC(c1ccnc(N[C@@H](C)c2cc3cc(Cl)ccc3[nH]c2=O)n1)S(C)(=O)=O` (stereo partly drawn) [Compound I-135, 6-Chloro-3-((1S)-1-((4-(1-(methylsulfonyl)ethyl)pyrimidin-2-yl)amino)ethyl) quinolin-2(1H)-one], the IC50 in assay [1] is over 10000 nM; in assay [2], 1000 to 10000 nM.

`CC(C)[C@H]1COCCN1c1ccnc(N[C@@H](C)c2cc3cc(Cl)ccc3[nH]c2=O)n1` [Compound I-104, 6-chloro-3-((S)-1-(4-((S)-3-isopropylmorpholino)pyrimidin-2-ylamino)ethyl) quinolin-2(1H)-one]: the figures for the IC50 in assay [1] and in assay [2] were 1000 to 10000 nM and 100 to 1000 nM, respectively.

As for `COc1nc(N[C@H](C)c2cc3cc(Cl)ccc3[nH]c2=O)ncc1C#N` [Compound I-174], the IC50 in assay [1] and in assay [2] was 1000 to 10000 nM each time.

Regarding `C[C@H](Nc1nccc(-c2c[nH]nc2C(F)(F)F)n1)c1cc2cc(Cl)ccc2[nH]c1=O` [Compound I-86], the IC50 in assay [1] is over 10000 nM; in assay [2] it was 1000 to 10000 nM.

With `COc1nc(NC(C)c2cc3cc(Cl)c(OCc4ccccn4)cc3[nH]c2=O)ncc1C#N` (centres unmarked) [Compound I-150], the IC50 in assay [1] and in assay [2] was under 100 nM throughout.

`CC(C)CS(=O)(=O)N(c1ccnc(N[C@@H](C)c2cc3cc(Cl)ccc3[nH]c2=O)n1)C(C)C` [Compound I-5, (S)—N-(2-(1-(6-Chloro-2-oxo-1,2-dihydroquinolin-3-yl)ethylamino)pyrimidin-4-yl)-N-isopropyl-2-methylpropane-1-sulfonamide]: the IC50 in assay [1] is 100 to 1000 nM; in assay [2] it was under 100 nM.

Take `COc1ccccc1-c1ccnc(N[C@@H](C)c2cc3cc(Cl)ccc3[nH]c2=O)n1` [Compound I-102]: the IC50 in assay [1] and in assay [2] was 1000 to 10000 nM throughout.

For `CC(C)NC(=O)c1ccnc(N[C@@H](C)c2cc3cc(Cl)ccc3[nH]c2=O)n1` [Compound I-117], the IC50 in assay [1] lay in the range of 1000 to 10000 nM; in assay [2], 100 to 1000 nM.

Turning to `COc1ncccc1-c1ccnc(N[C@@H](C)c2cc3cc(Cl)ccc3[nH]c2=O)n1` [Compound I-93], the results for the IC50 in assay [1] and in assay [2] were over 10000 nM and 1000 to 10000 nM, respectively.

Consider `CC(C)N(c1ccnc(N[C@@H](C)c2cc3cc(Cl)ccc3[nH]c2=O)n1)S(C)(=O)=O` [Compound I-10, (S)—N-(2-(1-(6-Chloro-2-oxo-1,2-dihydroquinolin-3-yl)ethylamino)pyrimidin-4-yl)-N-isopropylmethanesulfonamide], for which the half-maximal inhibitory concentration (IC50) in assay [1] was 100 to 1000 nM; in assay [2], under 100 nM.

On to `C[C@H](Nc1nccc(N(CCC2CCOCC2)S(C)(=O)=O)n1)c1cc2cc(Cl)ccc2[nH]c1=O` [Compound I-16], for which the IC50 was in the range of 1000 to 10000 nM in assay [1] and 100 to 1000 nM in assay [2].

Consider `C[C@H](Nc1nccc(-c2cnn(C)c2)n1)c1cc2cc(Cl)ccc2[nH]c1=O` [Compound I-91], for which the half-inhibitory concentration (IC50) in assay [1] fell in the range of 1000 to 10000 nM; in assay [2], 100 to 1000 nM.

In the case of `C[C@H](Nc1nccc(N(C2CCCOC2)S(C)(=O)=O)n1)c1cc2cc(Cl)ccc2[nH]c1=O` (stereo partly drawn) [Compound I-3, N-(2-(((S)-1-(6-chloro-2-oxo-1,2-dihydroquinolin-3-yl)ethyl)amino)pyrimidin-4-yl)-N-(tetrahydro-2H-pyran-3-yl)methanesulfonamide], the IC50 in assay [1] and in assay [2] was 100 to 1000 nM throughout.

Turning to `COc1nc(N[C@H](C)c2cc3cc(Cl)c(F)cc3[nH]c2=O)ncc1C#N` [Compound I-141, (R)-2-((1-(6-chloro-7-fluoro-2-oxo-1,2-dihydroquinolin-3-yl)ethyl)amino)-4-methoxypyrimidine-5-carbonitrile], the IC50 in assay [1] and in assay [2] was over 10000 nM in each case.

Take `C[C@H](Nc1nccc(CS(C)(=O)=O)n1)c1cc2cc(Cl)ccc2[nH]c1=O` [Compound I-133]: the IC50 was 1000 to 10000 nM in assay [1] and 100 to 1000 nM in assay [2].

Turning to `C[C@H](Nc1nccc(-c2cccc3c2OCC3)n1)c1cc2cc(Cl)ccc2[nH]c1=O` [Compound I-98], the IC50 in assay [1] and in assay [2] was over 10000 nM in each case.

Consider `COc1ccncc1-c1ccnc(N[C@@H](C)c2cc3cc(Cl)ccc3[nH]c2=O)n1` [Compound I-99], for which the IC50 in assay [1] and in assay [2] was 100 to 1000 nM each time.

As to `CC(C)CS(=O)(=O)Cc1ccnc(N[C@@H](C)c2cc3cc(Cl)ccc3[nH]c2=O)n1` [Compound I-121, (S)-6-Chloro-3-(1-(4-(isobutylsulfonylmethyl)pyrimidin-2-ylamino)ethyl)quinolin-2(1H)-one], the IC50 in assay [1] and in assay [2] was 100 to 1000 nM in each case.

With `Cc1nn(C)c(C)c1-c1ccnc(N[C@@H](C)c2cc3cc(Cl)ccc3[nH]c2=O)n1` [Compound I-84], the IC50 was over 10000 nM in assay [1] and 1000 to 10000 nM in assay [2].

Consider `O=C1OCCN1c1ccnc(NC2(c3cc4cc(Cl)ccc4[nH]c3=O)CC2)n1` [Compound I-168], for which the IC50 in assay [1] lay within 1000 to 10000 nM; in assay [2], 100 to 1000 nM.

Take `COCc1ccccc1-c1ccnc(N[C@@H](C)c2cc3cc(Cl)ccc3[nH]c2=O)n1` [Compound I-100]: the IC50 in assay [1] lay within 1000 to 10000 nM; in assay [2], 100 to 1000 nM.

Turning to `C[C@H](Nc1nccc(-c2coc3ccccc23)n1)c1cc2cc(Cl)ccc2[nH]c1=O` [Compound I-89], the IC50 in assay [1] and in assay [2] was 1000 to 10000 nM each time.

For the compound `COc1nc(NC(C)c2cc3cc(Cl)c(OCC4CC(F)(F)C4)cc3[nH]c2=O)ncc1C#N` (centres unmarked) [Compound I-172, 2-((1-(6-chloro-7-((3,3-difluorocyclobutyl)methoxy)-2-oxo-1,2-dihydroquinolin-3-yl)ethyl)amino)-4-methoxypyrimidine-5-carbonitrile], the IC50 is 100 to 1000 nM in assay [1] and under 100 nM in assay [2].

For `CC(C)N(c1ccnc(N[C@@H](C)c2cc3cc(Cl)ccc3[nH]c2=O)n1)S(=O)(=O)c1ccc2c(c1)oc(=O)n2C` [Compound I-21], the values for the IC50 in assay [1] and in assay [2] were 1000 to 10000 nM and 100 to 1000 nM, respectively.

For the compound `CC(C)[C@H]1COC(=O)N1c1ccnc(NCc2cc3cc(Cl)ccc3[nH]c2=O)n1` [Compound I-46, (S)-3-(2-(((6-Chloro-2-oxo-1,2-dihydroquinolin-3-yl)methyl)amino)pyrimidin-4-yl)-4-isopropyloxazolidin-2-one], the IC50 in assay [1] and in assay [2] was under 100 nM throughout.

Take `C[C@H](Nc1nccc([S+](C)[O-])n1)c1cc2cc(Cl)ccc2[nH]c1=O` (some centres unmarked) [Compound I-111]: the IC50 was 100 to 1000 nM in assay [1] and under 100 nM in assay [2].

As for `COc1nc(N[C@@H](C)c2cc3cc(Cl)c(OC(C)C)cc3[nH]c2=O)ncc1C#N` [Compound I-175, (S)-2-((1-(6-chloro-7-isopropoxy-2-oxo-1,2-dihydroquinolin-3-yl)ethyl)amino)-4-methoxypyrimidine-5-carbonitrile], the IC50 in assay [1] and in assay [2] was under 100 nM in each case.

Consider `C[C@@H](Nc1nccc(N2CCOC2=O)n1)c1cc2cc(Cl)ccc2[nH]c1=O` [Compound I-45], for which the IC50 in assay [1] and in assay [2] was 1000 to 10000 nM in each case.

In the case of `COc1nc(N[C@@H](C)c2cc3ncccc3[nH]c2=O)ncc1C#N` [Compound I-177, (S)—4-methoxy-2-((1-(2-oxo-1,2-dihydro-1,5-naphthyridin-3-yl)ethyl)amino)pyrimidine-5-carbonitrile], the IC50 in assay [1] is over 10000 nM; in assay [2] it was 1000 to 10000 nM.

In the case of `CC(C)N(c1ccnc(N[C@@H](C)c2cc3cc(Cl)ccc3[nH]c2=O)n1)S(=O)(=O)CC1CC1` [Compound I-11, (S)—N-(2-((1-(6-Chloro-2-oxo-1,2-dihydroquinolin-3-yl)ethyl)amino)pyrimidin-4-yl)-1-cyclopropyl-N-isopropylmethanesulfonamide], the 50% inhibitory concentration (IC50) in assay [1] and in assay [2] was under 100 nM each time.

The values above are taken from patent US10280150B2 (FORMA TM2, Inc., priority 2014, dated 2019).
